Reference: patent publication US9370504B2, “Pharmaceutical composition containing 1,2-dithiolthione derivative for preventing or treating disease caused by overexpression of LXR-α” (SNU R&DB FOUNDATION, priority 2008, dated 2016)
Read-outs that look alike come from different tables or passages of the source.

Legend:
[1] = system: SREBP-1; conditions: HepG2 cells, FIG. 5A
[2] = system: SREBP-1; conditions: H4IIE cells, FIG. 5A
[3] = system: SREBP-1; conditions: rat primary cultured liver cells, FIG. 5A
[4] = target: LXRα/RXRα complex (Homo sapiens, UniProt Q13133); conditions: LXRα and RXRα overexpressed; nuclear fraction; FIG. 3B
LXRα/RXRα complex, sequence (Q13133 whole entry, one chain of several): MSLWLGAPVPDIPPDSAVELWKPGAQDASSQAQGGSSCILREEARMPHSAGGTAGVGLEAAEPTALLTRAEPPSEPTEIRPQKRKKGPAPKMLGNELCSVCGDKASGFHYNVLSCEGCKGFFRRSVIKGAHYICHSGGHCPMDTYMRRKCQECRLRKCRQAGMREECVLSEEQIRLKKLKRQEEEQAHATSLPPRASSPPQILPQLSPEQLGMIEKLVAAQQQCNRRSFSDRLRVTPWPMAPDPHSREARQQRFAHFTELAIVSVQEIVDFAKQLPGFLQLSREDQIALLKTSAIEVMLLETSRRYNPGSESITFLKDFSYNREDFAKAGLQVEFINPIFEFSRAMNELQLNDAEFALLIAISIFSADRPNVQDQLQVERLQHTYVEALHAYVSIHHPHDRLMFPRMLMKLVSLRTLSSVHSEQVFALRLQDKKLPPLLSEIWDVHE
Description: Whether a binding capability of LXRE is changed by oltipraz treatment was identified by gel-shift assay. LXRE double-stranded oligonucleotide of a SREBP-1c gene was labeled with a radio active isotope at 5′-terminal by using [γ-^32P]ATP and T4 polynucleotide kinase, and then the labeled probe (1 ml, >10^6 cpm) was reacted with nuclear fraction proteins in a binding buffer solution. The reaction solution was subjected to electrophoresis in 4% polyacrylamide gel and then assayed by autoradiography. […] DNA binding specificity was identified by cold probe titration and supershift assay. For the cold probe titration, 20 times greater (molar base) un-labeled oligonucleotides were reacted in advance.

[5] = system: SREBP-1; conditions: HepG2 cells treated with T0901317; nuclear fraction; FIG. 5B
[6] = system: SREBP-1; conditions: high lipid diet 10 weeks; oltipraz 10-30 mg/kg, 3 times/week, last four weeks; p<0.01; FIG. 4
Description: (§1) Male C57BL/6 mice (average weight of 25 to 30 g) as test animals were purchased from Charles River Orient (Seoul, Korea). For at least one week before being tested, the mice were acclimatized to the surrounding environment in the animal test research center of the College of Pharmacy, Seoul National University, that is, humidity of 55±5%, temperature of 22±2° C., and controlled ventilation. The mice were repeatedly and alternately exposed to light and then placed in the dark for a time interval of 12 hours (from 7 A.M. to 7 P.M). […] The weight and state of the mice were measured once a week. Two groups of mice were respectively raised with a high lipid diet (Dyets Inc., Bethlehem) and a normal diet for 10 weeks. For the last four weeks in each case, oltipraz (10 or 30 mg/kg, 3 times/week) was administered to the mice (FIG. 1). Each group consisted of a total of 10 mice.
(§2) Total RNA (2 μg) and d(T)16 primer which were extracted from the liver of mice, and an AMV reverse transcriptase were used to obtain cDNA. The relative amounts of genes were quantified by realtime RT-PCR using a CyBr green dye. The realtime RT-PCR was Light-cycler^2.0 produced by Roche (Mannheim, Germany).

[7] = system: LXRα; conditions: high lipid diet 10 weeks; oltipraz 10-30 mg/kg, 3 times/week, last four weeks; p<0.01; FIG. 2
Description: as §1, §2

[8] = system: FAS; conditions: high lipid diet 10 weeks; oltipraz 10-30 mg/kg, 3 times/week, last four weeks; p<0.01; FIG. 9
Description: as §1, §2

[9] = system: ACC; conditions: high lipid diet 10 weeks; oltipraz 10-30 mg/kg, 3 times/week, last four weeks; p<0.01; FIG. 9
Description: as §1, §2

[10] = Description: as §1
[11] = within 12 hours after treatment
[12] = whole cell extract, co-treated with T0901317

Compound	expression of SREBP-1 protein after LXRα activator alone [1, 11]	expression of SREBP-1 protein after LXRα activator alone [2, 11]	expression of SREBP-1 protein after LXRα activator alone [3, 11]	binding capability of LXRα with respect to DNA (LXRE) [4]	increased nuclear localization of SREBP-1 [5]	increase in SREBP-1 expression (mRNA, relative to normal diet group) [6]	increase in LXRα expression (mRNA, relative to normal diet group) [7]	increase in FAS expression (mRNA, relative to normal diet group) [8]	increase in ACC expression (mRNA, relative to normal diet group) [9]	T0901317-increased expression of SREBP-1 protein [1, 12]	T0901317-increased expression of SREBP-1 protein ([2]; whole cell extract, co-treated with T0901317, FIGS. 6-8)	red part dyed with Oil-Red-O in liver tissue ([10]; HFD+Oltipraz versus HFD+vehicle, FIG. 11)	amount of triglyceride in liver tissues ([10]; high lipid diet 10 weeks, oltipraz administered, p<0.01, FIG. 10)	T0901317-increased expression of SREBP-1 protein [3, 12]
O=S(=O)(c1ccccc1)N(CC(F)(F)F)c1ccc(C(O)(C(F)(F)F)C(F)(F)F)cc1 [compound 10901317]	remarkably increased	remarkably increased	remarkably increased											
Cc1c(-c2cnccn2)ssc1=S [oltipraz, 4-methyl-5-(2-pyrazinyl)-1,2-dithiol-3-thione]				substantially decreased	concentration-dependently reduced	inhibited	inhibited	inhibited	inhibited	concentration-dependently reduced	concentration-dependently reduced	remarkably reduced	significantly reduced	concentration-dependently reduced
